One assay concerns XW055. Nature of the assay: Furfural tolerance in tube cultures. Format: cell-based. The note with it: Escherichia coli, strain XW055, AM1 medium, 50 g/L xylose, 48 h, read-out: minimal inhibitory concentration of furfural. On the procedure: (§1) Furfural toxicity was measured in tube cultures (13 mm by 100 mm) as previously described for ethanol strains (17, 22). For succinate strains, tubes contained 4 ml of AM1 medium with 50 g/L xylose, 50 mM KHCO3, and 100 mM MOPS as a buffer. Tubes were inoculated with starting cell density of 44 mg/L. Cell mass was measured at 550 nm after incubation for 48 h (37° C.).

In another assay the test system is XW120. Nature of the assay: Furfural tolerance in tube cultures. Type of assay: cell-based. The note with it: Escherichia coli, 48 h, read-out: minimal inhibitory concentration of furfural. The protocol: as §1
The test system of the next assay is XW136. Nature of the assay: Furfural tolerance in tube cultures. Format: cell-based, Escherichia coli. To be noted: strain XW136 (XW120 with adhE::fucO), AM1 medium, 50 g/L xylose, 48 h. On the procedure: as §1
In a further assay the test system is LY180. Put plainly: Batch ethanol fermentation in AM1 medium with furfural. The note with it: 15 mM furfural, AM1 mineral salts medium, 100 g/L xylose. Format: cell-based, Escherichia coli. On the procedure:
(§2) FIGS. 4A-C. Comparison of batch fermentations for the parent LY180 and the plasmid-free, furfural-resistant strain XW129. […] For A (cell mass) and B (ethanol and furfural), fermentations were conducted in mineral salt medium AM1 (100 g/L xylose and 15 mM furfural). Control fermentations without furfural were also included. Fermentations (C) were also conducted using hemicellulose hydrolysate containing 36 g/L total sugar, supplemented with AM1 nutrients and 0.5 mM sodium metabisulfite. Data represent averages of at least 2 experiments with standard deviations.
(§3) Ethanol fermentations with xylose were carried out as previously described (17, 22), with and without furfural. For succinate production from xylose, seed pre-cultures of strains were grown in sealed culture tubes containing AM1 medium (20 g/L xylose, 50 mM KHCO3 and 100 mM MOPS). After incubation for 16 h, pre-inocula were diluted into 500-ml fermentation vessels containing 300 ml AM1 media (100 g/L xylose, 1 mM betaine and 100 mM KHCO3) at an initial density of 6.6 mg dry cell weight. After 24 h growth, these seed cultures were used to provide starting inocula for batch fermentations (AM1 medium, 100 g/L xylose and 100 mM KHCO3). Fermentations were maintained at pH 7.0 by automatic addition of base containing additional CO2 (2.4 M potassium carbonate in 1.2 M potassium hydroxide) as previously described (27). Quantitative analyses of sugars, ethanol, furfural, and succinate were as previously described (17, 27, 38).

The next assay relates to XW129. The description is as above. Type of assay: cell-based, Escherichia coli. The note with it: 15 mM furfural, AM1 mineral salts medium, 100 g/L xylose. On the procedure:
as §2, §3

In brackets after ≈: the same amount, converted by molar mass.

As for `O=Cc1ccco1` [furfural], in the assay with XW055, the MIC stood at 7.5 mM (≈ 721 µg/mL). Also, in the assay on XW120, the MIC was 15 mM (≈ 1440 µg/mL). Moreover, in the assay on XW136, the furfural tolerance is on record as 17.5 mM. Moreover, the growth and fermentation entry in the assay with LY180 is reported as “completely blocked”. Also, in the assay on XW129, the delay of growth was found to be 24 h and the “extension of time required to complete fermentation” value was found to be 6 h.
